Measured values reported in ChEMBL document CHEMBL5465560, “Selectivity Literature for EUbOPEN Chemogenomic Library” (2024).

How the values were obtained:
[1] = biological target: Tyrosine-protein kinase Fer (Homo sapiens) (UniProt P16591); assay: Selectivity interaction (KinomeScan (DiscoverX)) EUB0000666a FER; settings: at 10 µM
[2] = biological target: T1, Serine/threonine-protein kinase Nek9 (Homo sapiens) (UniProt Q8TD19); assay: Selectivity interaction (KinomeScan (DiscoverX)) EUB0000607a NEK9; settings: at 10 µM
T1 sequence (whole entry): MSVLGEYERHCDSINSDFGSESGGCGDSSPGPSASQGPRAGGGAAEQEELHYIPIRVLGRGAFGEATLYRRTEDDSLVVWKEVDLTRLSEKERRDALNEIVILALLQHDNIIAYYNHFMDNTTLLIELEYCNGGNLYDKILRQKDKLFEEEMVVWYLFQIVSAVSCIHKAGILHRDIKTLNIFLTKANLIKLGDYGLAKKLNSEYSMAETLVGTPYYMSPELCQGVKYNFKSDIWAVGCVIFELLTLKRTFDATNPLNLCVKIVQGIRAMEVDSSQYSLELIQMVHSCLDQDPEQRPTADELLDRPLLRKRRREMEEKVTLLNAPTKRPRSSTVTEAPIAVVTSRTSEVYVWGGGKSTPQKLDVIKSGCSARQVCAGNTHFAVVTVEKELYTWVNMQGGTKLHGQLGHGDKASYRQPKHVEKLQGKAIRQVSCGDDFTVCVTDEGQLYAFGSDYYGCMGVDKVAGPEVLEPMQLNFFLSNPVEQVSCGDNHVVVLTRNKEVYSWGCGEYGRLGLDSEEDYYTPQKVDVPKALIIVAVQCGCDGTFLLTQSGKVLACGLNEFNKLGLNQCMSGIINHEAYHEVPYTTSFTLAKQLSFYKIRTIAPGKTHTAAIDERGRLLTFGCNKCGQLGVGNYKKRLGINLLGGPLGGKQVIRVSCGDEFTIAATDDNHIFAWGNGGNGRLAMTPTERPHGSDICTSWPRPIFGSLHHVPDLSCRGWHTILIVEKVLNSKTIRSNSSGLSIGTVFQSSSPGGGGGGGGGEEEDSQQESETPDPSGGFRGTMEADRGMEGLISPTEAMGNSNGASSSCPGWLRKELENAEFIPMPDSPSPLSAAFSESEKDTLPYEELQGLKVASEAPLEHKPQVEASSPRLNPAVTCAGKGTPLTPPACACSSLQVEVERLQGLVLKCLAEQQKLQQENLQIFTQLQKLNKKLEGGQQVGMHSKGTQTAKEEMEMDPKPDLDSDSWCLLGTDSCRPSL

[3] = biological target: T2, Mitogen-activated protein kinase kinase kinase 2 (Homo sapiens) (UniProt Q9Y2U5); assay: Selectivity interaction (ActivX KiNativ screen (kinase selectivity in THP-1 cell lysates)) EUB0000639a MAP3K2; assay type: subcellular; settings: lysate
T2 sequence (whole entry): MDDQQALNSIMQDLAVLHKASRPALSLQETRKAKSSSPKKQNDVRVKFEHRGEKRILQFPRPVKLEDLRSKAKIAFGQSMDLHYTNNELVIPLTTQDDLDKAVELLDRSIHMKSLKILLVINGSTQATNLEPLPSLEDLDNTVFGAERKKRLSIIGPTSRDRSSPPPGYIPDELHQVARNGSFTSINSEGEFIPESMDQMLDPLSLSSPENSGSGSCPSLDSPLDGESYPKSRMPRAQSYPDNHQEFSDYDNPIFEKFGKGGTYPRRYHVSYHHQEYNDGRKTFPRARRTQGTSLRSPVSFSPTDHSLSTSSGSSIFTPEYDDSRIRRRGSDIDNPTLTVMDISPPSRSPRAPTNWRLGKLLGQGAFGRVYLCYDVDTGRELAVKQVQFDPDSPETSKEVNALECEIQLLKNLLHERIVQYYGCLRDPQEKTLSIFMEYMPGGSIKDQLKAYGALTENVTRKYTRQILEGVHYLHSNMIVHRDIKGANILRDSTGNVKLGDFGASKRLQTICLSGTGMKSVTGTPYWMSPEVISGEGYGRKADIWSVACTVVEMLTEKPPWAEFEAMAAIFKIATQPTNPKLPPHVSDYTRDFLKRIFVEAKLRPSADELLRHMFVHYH

[4] = biological target: Phosphatidylinositol 4,5-bisphosphate 3-kinase catalytic subunit alpha isoform (Homo sapiens) (UniProt P42336); assay: (§1) Selectivity interaction (KinomeScan (DiscoverX)) EUB0001049a PIK3CA; settings: at 1 µM
[5] = system: Phosphatidylinositol 4,5-bisphosphate 3-kinase catalytic subunit alpha isoform (Homo sapiens), P42336 [C420R]; assay: as §1; settings: at 1 µM
[6] = system: Phosphatidylinositol 4,5-bisphosphate 3-kinase catalytic subunit alpha isoform (Homo sapiens), P42336 [E542K]; assay: as §1; settings: at 1 µM
[7] = system: Phosphatidylinositol 4,5-bisphosphate 3-kinase catalytic subunit alpha isoform (Homo sapiens), P42336 [E545A]; assay: as §1; settings: at 1 µM
[8] = system: Phosphatidylinositol 4,5-bisphosphate 3-kinase catalytic subunit alpha isoform (Homo sapiens), P42336 [E545K]; assay: as §1; settings: at 1 µM
[9] = system: Phosphatidylinositol 4,5-bisphosphate 3-kinase catalytic subunit alpha isoform (Homo sapiens), P42336 [H1047L]; assay: as §1; settings: at 1 µM
[10] = system: Phosphatidylinositol 4,5-bisphosphate 3-kinase catalytic subunit alpha isoform (Homo sapiens), P42336 [H1047Y]; assay: as §1; settings: at 1 µM
[11] = system: Phosphatidylinositol 4,5-bisphosphate 3-kinase catalytic subunit alpha isoform (Homo sapiens), P42336 [I800L]; assay: as §1; settings: at 1 µM
[12] = system: Phosphatidylinositol 4,5-bisphosphate 3-kinase catalytic subunit alpha isoform (Homo sapiens), P42336 [M1043I]; assay: as §1; settings: at 1 µM
[13] = system: Phosphatidylinositol 4,5-bisphosphate 3-kinase catalytic subunit alpha isoform (Homo sapiens), P42336 [Q546K]; assay: as §1; settings: at 1 µM
[14] = biological target: Insulin receptor (Homo sapiens, UniProt P06213); assay: Selectivity interaction (KinomeScan (DiscoverX)) EUB0000045b INSR
[15] = biological target: Mitogen-activated protein kinase 14 (Homo sapiens, UniProt Q16539); settings: at 10 µM
[16] = biological target: CDK4/Cyclin D3 (Homo sapiens) (UniProt P11802+P30281); assay: (§2) Selectivity interaction (KinomeScan (DiscoverX)) EUB0001619a CDK4; assay type: protein-complex assay; settings: at 1 µM
[17] = biological target: Cyclin-dependent kinase 4/cyclin D1 (Homo sapiens) (UniProt P11802+P24385); assay: as §2; assay type: protein-complex assay; settings: at 1 µM
[18] = biological target: Tyrosine-protein kinase Fer (Homo sapiens) (UniProt P16591); assay: Selectivity interaction (KinomeScan (DiscoverX)) EUB0001619a FER; settings: at 1 µM
[19] = biological target: Ribosomal protein S6 kinase beta-1 (Homo sapiens, UniProt P23443); assay: Selectivity interaction (ActivX KiNativ screen (ex vivo kinase selectivity in human PBMCs)) EUB0001619a RPS6KB1; assay type: cell-based; settings: PBMC, at 1 µM
Ribosomal protein S6 kinase beta-1, sequence (P23443 whole entry, looked up): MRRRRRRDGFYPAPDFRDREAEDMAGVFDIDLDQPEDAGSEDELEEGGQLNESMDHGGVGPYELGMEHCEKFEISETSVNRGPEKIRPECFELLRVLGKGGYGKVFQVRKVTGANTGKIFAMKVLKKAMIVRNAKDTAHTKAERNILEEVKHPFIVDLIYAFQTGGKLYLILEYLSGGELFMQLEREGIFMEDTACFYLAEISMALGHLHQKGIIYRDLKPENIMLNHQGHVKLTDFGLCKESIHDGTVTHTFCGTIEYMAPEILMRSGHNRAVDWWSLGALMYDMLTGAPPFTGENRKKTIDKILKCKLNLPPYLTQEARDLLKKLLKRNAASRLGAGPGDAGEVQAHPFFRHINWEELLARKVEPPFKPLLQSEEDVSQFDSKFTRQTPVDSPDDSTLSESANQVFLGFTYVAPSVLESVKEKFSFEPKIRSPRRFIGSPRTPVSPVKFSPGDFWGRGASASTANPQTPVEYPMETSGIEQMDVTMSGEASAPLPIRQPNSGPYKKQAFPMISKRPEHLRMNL

Tyrosine-protein kinase Fer (Homo sapiens), sequence (P16591 whole entry, looked up): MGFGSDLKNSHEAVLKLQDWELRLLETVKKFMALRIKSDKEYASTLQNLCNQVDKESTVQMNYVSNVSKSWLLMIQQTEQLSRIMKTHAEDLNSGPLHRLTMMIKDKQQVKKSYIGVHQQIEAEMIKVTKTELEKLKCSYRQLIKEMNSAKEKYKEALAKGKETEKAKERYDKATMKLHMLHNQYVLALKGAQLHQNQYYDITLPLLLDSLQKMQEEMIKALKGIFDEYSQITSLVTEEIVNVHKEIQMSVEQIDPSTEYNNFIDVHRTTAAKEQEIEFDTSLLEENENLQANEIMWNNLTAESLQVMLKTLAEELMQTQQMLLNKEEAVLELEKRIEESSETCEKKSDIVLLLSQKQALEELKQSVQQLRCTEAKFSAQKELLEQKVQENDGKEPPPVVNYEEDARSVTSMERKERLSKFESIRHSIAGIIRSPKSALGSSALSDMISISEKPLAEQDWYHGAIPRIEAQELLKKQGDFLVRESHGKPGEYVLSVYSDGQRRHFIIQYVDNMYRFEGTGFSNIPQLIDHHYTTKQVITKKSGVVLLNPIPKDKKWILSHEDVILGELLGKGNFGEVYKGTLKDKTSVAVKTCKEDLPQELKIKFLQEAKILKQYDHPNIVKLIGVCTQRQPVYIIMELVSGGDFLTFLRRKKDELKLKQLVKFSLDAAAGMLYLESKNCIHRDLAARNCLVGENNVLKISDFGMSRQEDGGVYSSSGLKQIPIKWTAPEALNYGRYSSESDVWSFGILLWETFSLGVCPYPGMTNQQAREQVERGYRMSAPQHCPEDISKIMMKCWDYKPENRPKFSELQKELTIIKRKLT
Insulin receptor, sequence (P06213 28-758 limits assumed): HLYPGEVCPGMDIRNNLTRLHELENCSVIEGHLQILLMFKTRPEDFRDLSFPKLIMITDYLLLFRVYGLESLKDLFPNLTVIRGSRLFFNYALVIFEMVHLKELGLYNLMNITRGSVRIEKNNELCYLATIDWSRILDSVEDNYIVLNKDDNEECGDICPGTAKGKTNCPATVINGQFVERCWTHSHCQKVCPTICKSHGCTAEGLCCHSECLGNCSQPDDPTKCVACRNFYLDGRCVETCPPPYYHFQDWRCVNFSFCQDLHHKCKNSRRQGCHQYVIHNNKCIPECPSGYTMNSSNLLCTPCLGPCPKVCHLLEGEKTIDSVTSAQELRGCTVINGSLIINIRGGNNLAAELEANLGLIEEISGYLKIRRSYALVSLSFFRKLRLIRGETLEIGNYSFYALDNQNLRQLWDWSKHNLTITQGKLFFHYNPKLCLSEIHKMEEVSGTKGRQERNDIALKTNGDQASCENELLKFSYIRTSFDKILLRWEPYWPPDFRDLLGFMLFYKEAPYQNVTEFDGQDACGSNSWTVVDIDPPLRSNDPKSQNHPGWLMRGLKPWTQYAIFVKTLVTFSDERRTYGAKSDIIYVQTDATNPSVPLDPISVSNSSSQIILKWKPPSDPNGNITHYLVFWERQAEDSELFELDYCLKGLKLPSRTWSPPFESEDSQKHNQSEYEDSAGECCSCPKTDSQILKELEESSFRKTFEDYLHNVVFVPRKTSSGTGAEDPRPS
Insulin receptor, sequence (P06213 763-1382 limits assumed): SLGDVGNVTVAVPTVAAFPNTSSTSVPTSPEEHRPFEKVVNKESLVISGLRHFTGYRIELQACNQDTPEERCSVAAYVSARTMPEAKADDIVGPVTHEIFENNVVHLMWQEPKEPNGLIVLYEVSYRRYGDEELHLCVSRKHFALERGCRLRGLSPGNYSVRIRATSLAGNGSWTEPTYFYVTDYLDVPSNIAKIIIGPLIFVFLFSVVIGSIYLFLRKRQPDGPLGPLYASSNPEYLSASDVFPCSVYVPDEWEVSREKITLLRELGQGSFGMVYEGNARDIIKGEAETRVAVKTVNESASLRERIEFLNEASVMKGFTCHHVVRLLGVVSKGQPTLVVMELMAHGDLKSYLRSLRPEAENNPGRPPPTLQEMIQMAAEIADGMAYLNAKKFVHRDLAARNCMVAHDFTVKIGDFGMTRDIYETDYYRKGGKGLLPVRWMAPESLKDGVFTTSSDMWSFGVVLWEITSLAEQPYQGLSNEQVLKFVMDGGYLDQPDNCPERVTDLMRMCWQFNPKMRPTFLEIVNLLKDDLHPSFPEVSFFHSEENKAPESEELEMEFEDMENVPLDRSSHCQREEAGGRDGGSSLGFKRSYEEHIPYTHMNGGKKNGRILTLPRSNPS
Phosphatidylinositol 4,5-bisphosphate 3-kinase catalytic subunit alpha isoform (Homo sapiens), P42336 [Q546K], sequence (P42336 whole entry Q546K, canonical isoform): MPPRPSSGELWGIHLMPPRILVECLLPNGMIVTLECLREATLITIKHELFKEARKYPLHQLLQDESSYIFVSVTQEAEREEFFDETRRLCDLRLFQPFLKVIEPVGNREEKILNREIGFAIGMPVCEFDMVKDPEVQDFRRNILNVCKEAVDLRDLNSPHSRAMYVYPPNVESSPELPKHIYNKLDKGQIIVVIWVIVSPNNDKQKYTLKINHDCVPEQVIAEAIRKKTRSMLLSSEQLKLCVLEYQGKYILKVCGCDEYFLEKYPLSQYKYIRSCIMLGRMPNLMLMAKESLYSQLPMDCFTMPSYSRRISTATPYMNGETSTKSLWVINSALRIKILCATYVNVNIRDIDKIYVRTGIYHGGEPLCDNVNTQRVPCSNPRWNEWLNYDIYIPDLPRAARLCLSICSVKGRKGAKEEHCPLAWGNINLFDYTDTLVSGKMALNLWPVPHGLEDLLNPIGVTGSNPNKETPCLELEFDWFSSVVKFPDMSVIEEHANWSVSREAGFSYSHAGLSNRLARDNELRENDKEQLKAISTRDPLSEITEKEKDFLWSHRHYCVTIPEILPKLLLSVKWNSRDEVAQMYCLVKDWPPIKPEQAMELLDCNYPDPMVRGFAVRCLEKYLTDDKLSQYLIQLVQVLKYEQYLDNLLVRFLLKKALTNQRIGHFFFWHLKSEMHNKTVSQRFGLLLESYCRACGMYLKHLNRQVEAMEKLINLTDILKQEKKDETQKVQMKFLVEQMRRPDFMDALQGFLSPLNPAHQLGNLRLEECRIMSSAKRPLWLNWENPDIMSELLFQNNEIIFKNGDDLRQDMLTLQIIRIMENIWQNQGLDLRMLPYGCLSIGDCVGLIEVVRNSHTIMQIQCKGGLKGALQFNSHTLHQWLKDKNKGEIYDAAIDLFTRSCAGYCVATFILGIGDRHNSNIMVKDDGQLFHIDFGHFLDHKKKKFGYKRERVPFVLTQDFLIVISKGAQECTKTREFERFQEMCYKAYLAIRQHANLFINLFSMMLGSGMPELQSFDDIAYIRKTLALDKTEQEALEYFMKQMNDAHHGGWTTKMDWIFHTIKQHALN
Phosphatidylinositol 4,5-bisphosphate 3-kinase catalytic subunit alpha isoform (Homo sapiens), P42336 [E545K], sequence (P42336 whole entry E545K, canonical isoform): as the sequence (P42336 whole entry Q546K, canonical isoform) above, with E545K, K546Q counted along it

O=C(NOC[C@H](O)CO)c1ccc(F)c(F)c1Nc1ccc(I)cc1F
% of control [1]: 100%

CNC(=O)Nc1ccc(-c2nc(N3CC4CCC(C3)O4)c3cnn(C4CCC5(CC4)OCCO5)c3n2)cc1
% of control [2]: 100%

CC[C@@H]1[C@H](F)C(=O)N[C@@H]1COc1nccc2cc(C(N)=O)c(OC)cc12 [ZIMLOVISERTIB]
% of inhibition ([3]; at 0.01 µM): -0.4%
% of inhibition ([3]; at 0.04 µM): -0.5%
% of inhibition ([3]; at 0.2 µM): -5.2%
% of inhibition ([3]; at 1 µM): 3%
% of inhibition ([3]; at 5 µM): 6.3%

COc1cc(Nc2nc(C)cc(-c3cnn4nc(OC)ccc34)n2)cc(C(F)(F)F)c1
% of control [4]: 100%
% of control [5]: 76%
% of control [6]: 59%
% of control [7]: 77%
% of control [8]: 71%
% of control [9]: 100%
% of control [10]: 85%
% of control [11]: 46%
% of control [12]: 100%
% of control [13]: 66%

C=CC(=O)Nc1cc(-n2c(=O)ccc3cnc4ccc(-c5ccc(NS(C)(=O)=O)cc5)cc4c32)ccc1C
% of control ([14]; at 1 µM): 93%
% of control ([14]; at 10 µM): 100%

Cc1cc([C@@H](C)Nc2ccccc2C(=O)O)c2nc(N3CCOCC3)cc(=O)n2c1 [AZD-6482]
% of control [15]: 97%

N#Cc1cccc(-c2c[nH]c3ncnc(N4CCOCC4)c23)c1
% of control [16]: 100%
% of control [17]: 65%
% of control [18]: 84%
% of inhibition [19]: 11%
